Laboratory results reported in patent publication US20250084056A1, “SUBSTITUTED OXOISOINDOLINYL PIPERIDINE-2,6-DIONE COMPOUNDS” (BRISTOL-MYERS SQUIBB COMPANY, priority 2023, published 2025).

Key:
Assay type in all cases: cell-based
Phospho-Rb (Ser807/811) = assay: Phospho-Retinoblastoma (pRB) Cellular Assay; conditions: Homo sapiens, OVCAR-3, NIH OVCAR3 cells, 24 hours; for IC50: concentration giving 50% response; for Emax: maximum response, reference compound at 10 μM = 100%, read-out: pRB Ymax
Outline: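 Phospho-Rb (Ser807/811) kit read-out on EnVision after lysis (≥4 h, room temperature, dark) of OVCAR3 cells exposed to compound dilutions for 24 h. IC50 and maximum response Ymax are relative to a 10 μM reference compound defining 100%.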

GSPT1 = GSPT1 (Homo sapiens, UniProt P15170+Q96SW2); assay: GSPT1 Cellular Degradation Assay (DF15-GSPT1-ePL); design: expressed in transfected cells; conditions: DF15-GSPT1-ePL cells, 20 hours
GSPT1, sequence (P15170 whole entry, the tested form may be a part): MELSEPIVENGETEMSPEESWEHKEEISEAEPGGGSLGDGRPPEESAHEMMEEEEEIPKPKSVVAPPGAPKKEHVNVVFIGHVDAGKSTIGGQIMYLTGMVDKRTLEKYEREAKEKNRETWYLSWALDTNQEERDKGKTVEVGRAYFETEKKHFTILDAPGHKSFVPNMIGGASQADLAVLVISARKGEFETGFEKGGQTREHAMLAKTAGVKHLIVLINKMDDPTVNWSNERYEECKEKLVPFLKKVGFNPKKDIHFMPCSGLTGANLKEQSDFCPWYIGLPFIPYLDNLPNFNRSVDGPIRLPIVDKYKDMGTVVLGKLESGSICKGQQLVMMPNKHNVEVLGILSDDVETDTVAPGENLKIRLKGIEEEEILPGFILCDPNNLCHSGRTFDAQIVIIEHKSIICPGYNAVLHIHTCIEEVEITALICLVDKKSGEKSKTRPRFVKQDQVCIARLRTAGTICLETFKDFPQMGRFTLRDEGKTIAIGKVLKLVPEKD
GSPT1, sequence (Q96SW2 whole entry, the tested form may be a part): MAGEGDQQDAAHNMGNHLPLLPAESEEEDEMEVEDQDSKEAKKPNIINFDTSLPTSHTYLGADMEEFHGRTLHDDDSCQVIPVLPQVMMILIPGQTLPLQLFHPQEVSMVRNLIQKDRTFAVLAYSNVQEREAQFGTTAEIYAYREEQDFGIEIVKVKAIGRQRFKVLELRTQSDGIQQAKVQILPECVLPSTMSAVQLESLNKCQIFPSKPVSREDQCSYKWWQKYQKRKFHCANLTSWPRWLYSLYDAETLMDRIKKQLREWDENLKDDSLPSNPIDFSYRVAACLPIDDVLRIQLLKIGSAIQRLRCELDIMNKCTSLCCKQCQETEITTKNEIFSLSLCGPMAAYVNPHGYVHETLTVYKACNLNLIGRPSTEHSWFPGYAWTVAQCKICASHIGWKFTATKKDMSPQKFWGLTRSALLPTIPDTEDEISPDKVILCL
GSPT1, sequence (Q16531 whole entry partner, the tested form may be a part): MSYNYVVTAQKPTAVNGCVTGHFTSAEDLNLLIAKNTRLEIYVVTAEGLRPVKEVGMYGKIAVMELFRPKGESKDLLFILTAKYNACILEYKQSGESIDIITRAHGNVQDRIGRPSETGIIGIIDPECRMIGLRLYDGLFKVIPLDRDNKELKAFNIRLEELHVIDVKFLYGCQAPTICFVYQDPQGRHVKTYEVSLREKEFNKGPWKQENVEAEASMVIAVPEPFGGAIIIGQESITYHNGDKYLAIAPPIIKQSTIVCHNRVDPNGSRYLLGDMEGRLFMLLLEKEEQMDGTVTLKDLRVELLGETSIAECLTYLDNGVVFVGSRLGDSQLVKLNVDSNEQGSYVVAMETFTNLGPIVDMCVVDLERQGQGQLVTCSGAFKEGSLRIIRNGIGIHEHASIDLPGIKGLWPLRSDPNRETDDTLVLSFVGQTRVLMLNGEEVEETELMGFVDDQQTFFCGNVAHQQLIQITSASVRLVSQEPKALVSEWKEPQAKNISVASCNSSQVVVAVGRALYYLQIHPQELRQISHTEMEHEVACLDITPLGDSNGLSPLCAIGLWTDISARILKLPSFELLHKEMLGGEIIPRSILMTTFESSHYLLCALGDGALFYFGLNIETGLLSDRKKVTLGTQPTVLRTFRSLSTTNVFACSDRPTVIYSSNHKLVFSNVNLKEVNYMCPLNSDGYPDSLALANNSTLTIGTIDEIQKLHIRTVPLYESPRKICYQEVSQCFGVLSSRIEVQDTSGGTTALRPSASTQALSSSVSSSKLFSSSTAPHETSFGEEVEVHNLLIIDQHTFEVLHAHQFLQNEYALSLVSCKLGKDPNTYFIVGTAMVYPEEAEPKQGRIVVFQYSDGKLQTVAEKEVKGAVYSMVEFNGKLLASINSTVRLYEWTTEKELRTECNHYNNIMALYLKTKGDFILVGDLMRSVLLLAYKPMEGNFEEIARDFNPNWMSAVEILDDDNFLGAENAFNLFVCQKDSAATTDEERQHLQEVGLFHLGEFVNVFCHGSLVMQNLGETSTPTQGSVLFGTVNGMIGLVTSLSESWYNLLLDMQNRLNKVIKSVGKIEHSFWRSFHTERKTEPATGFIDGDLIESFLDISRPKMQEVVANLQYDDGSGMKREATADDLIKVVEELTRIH
Outline: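 DC50 and Dmax were derived from chemiluminescence, with 75% response set by the reference compound at […]. Readout was ePL enzyme-fragment complementation in a DF15 line expressing chimeric GSPT1. Cells were exposed to compound for 20 h at 37 °C in RPMI 1640 with 10% FBS, cooled 30 min, then lysed with substrate for 60 min.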

Cyclin E1 = Cyclin E1 (Homo sapiens, UniProt P24864+Q96SW2); assay: Cyclin E1 Cellular Degradation Assay (MSD); design: endogenous in cells; host or cells: OVCAR3; conditions: for DC50 / Dmax: Cyclin E1 cellular degradation; for Dmax: maximum degradation; for Ratio of GSPT1 DC50/Cyclin E1 DC50: selectivity for degradation of Cyclin E1 over GSPT1
Cyclin E1, sequence (P24864 whole entry): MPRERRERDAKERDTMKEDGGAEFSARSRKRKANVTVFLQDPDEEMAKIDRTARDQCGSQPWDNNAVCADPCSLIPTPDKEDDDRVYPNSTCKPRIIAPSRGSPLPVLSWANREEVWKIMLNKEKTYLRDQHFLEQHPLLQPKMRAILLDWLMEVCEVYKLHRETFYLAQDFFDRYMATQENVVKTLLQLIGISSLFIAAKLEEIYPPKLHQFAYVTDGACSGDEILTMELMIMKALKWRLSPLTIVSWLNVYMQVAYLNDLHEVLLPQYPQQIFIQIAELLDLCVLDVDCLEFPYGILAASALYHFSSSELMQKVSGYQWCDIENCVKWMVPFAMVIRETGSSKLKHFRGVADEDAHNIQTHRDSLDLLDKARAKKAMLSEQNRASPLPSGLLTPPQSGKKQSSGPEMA
Cyclin E1, sequence (Q96SW2 whole entry): as the sequence (Q96SW2 whole entry, the tested form may be a part) above
Cyclin E1, sequence (Q16531 whole entry partner): as the sequence (Q16531 whole entry partner, the tested form may be a part) above
Outline: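 Cyclin E1 remaining after 24 h compound exposure of OVCAR3 cells was quantified in lysates by electrochemiluminescent MSD sandwich assay. DC50 (50% response concentration) and Dmax (maximum response) were calculated, with 110% response set by a reference compound at […].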

Question: `O=C1CCC(N2Cc3ccc(COC(=O)Nc4ccc(Oc5ccc(F)cc5)cc4)c(O[C@@H]4CCCOC4)c3C2=O)C(=O)N1` (stereo partly drawn) [Example 144, [2-(2,6-dioxopiperidin-3-yl)-4-[(3R)-oxan-3-yloxy]-3-oxo-2,3-dihydro-1H-isoindol-5-yl]methyl N-[4-(4-fluorophenoxy)phenyl]carbamate] was tested. Which IC50 (Phospho-Rb (Ser807/811)) did it give?
Answer: 23 nM

Question: What about the Emax (Phospho-Rb (Ser807/811)) of the same compound?
Answer: 145%

Question: What about the DC50 (GSPT1) of the same compound?
Answer: > 14000 nM

Question: And the Dmax (GSPT1)?
Answer: 4%

Question: What about the DC50 (Cyclin E1) of the same compound?
Answer: 106 nM

Question: What about the Dmax (Cyclin E1) of the same compound?
Answer: 103%

Question: And the “Ratio of GSPT1 DC50/Cyclin E1 DC50” value (Cyclin E1)?
Answer: >133

Question: Which results are given for `O=C1CCC(N2Cc3ccc(COC(=O)Nc4ccc(Oc5ccc(F)cc5F)cc4)c(O[C@@H]4CCCOC4)c3C2=O)C(=O)N1` (stereo partly drawn) [Example 145, [2-(2,6-dioxopiperidin-3-yl)-4-[(3R)-oxan-3-yloxy]-3-oxo-2,3-dihydro-1H-isoindol-5-yl]methyl N-[4-(2,4-difluorophenoxy)phenyl]carbamate]?
Answer: IC50 (Phospho-Rb (Ser807/811)): 37 nM; Emax (Phospho-Rb (Ser807/811)): 145%; DC50 (GSPT1): > 14000 nM; Dmax (GSPT1): 9%; DC50 (Cyclin E1): 57 nM; Dmax (Cyclin E1): 111%; Ratio of GSPT1 DC50/Cyclin E1 DC50 (Cyclin E1): >247

Question: With `O=C1CCC(N2Cc3ccc(COC(=O)Nc4ccc(Oc5ccc(F)c(F)c5)cc4F)c(O[C@@H]4CCCOC4)c3C2=O)C(=O)N1` (stereo partly drawn) [Example 146, [2-(2,6-dioxopiperidin-3-yl)-4-[(3R)-oxan-3-yloxy]-3-oxo-2,3-dihydro-1H-isoindol-5-yl]methyl N-[4-(3,4-difluorophenoxy)-2-fluorophenyl]carbamate] as the compound, how does the IC50 (Phospho-Rb (Ser807/811)) read?
Answer: 38 nM

Question: What about the Emax (Phospho-Rb (Ser807/811)) of the same compound?
Answer: 133%

Question: And the DC50 (GSPT1)?
Answer: > 14000 nM

Question: And the Dmax (GSPT1)?
Answer: 8%

Question: And the DC50 (Cyclin E1)?
Answer: 47 nM

Question: And the Dmax (Cyclin E1)?
Answer: 112%

Question: What about the “Ratio of GSPT1 DC50/Cyclin E1 DC50” value (Cyclin E1) of the same compound?
Answer: >296

Question: How did the IC50 (Phospho-Rb (Ser807/811)) turn out when `O=C1CCC(N2Cc3ccc(COC(=O)Nc4ccc(Oc5ccc(F)cc5)cc4F)c(O[C@@H]4CCCOC4)c3C2=O)C(=O)N1` (stereo partly drawn) [Example 147, [2-(2,6-dioxopiperidin-3-yl)-4-[(3R)-oxan-3-yloxy]-3-oxo-2,3-dihydro-1H-isoindol-5-yl]methyl N-[2-fluoro-4-(4-fluorophenoxy)phenyl]carbamate] was run?
Answer: 43 nM

Question: What about the Emax (Phospho-Rb (Ser807/811)) of the same compound?
Answer: 137%

Question: What about the DC50 (GSPT1) of the same compound?
Answer: > 14000 nM

Question: What about the Dmax (GSPT1) of the same compound?
Answer: 2%

Question: What about the DC50 (Cyclin E1) of the same compound?
Answer: 12 nM

Question: What about the Dmax (Cyclin E1) of the same compound?
Answer: 110%

Question: And the “Ratio of GSPT1 DC50/Cyclin E1 DC50” value (Cyclin E1)?
Answer: >1,121

Question: What does the source list for `O=C1CCC(N2Cc3ccc(COC(=O)Nc4ccc(Oc5ccc(F)cc5F)cc4F)c(O[C@@H]4CCCOC4)c3C2=O)C(=O)N1` (stereo partly drawn) [Example 148, [2-(2,6-dioxopiperidin-3-yl)-4-[(3R)-oxan-3-yloxy]-3-oxo-2,3-dihydro-1H-isoindol-5-yl]methyl N-[4-(2,4-difluorophenoxy)-2-fluorophenyl]carbamate]?
Answer: IC50 (Phospho-Rb (Ser807/811)): 75 nM; Emax (Phospho-Rb (Ser807/811)): 136%; DC50 (GSPT1): > 14000 nM; Dmax (GSPT1): 10%; DC50 (Cyclin E1): 33 nM; Dmax (Cyclin E1): 110%; Ratio of GSPT1 DC50/Cyclin E1 DC50 (Cyclin E1): >423

Question: What does the source list for `O=C1CCC(N2Cc3ccc(COC(=O)Nc4ccc(Oc5cc(F)cc(F)c5)cc4F)c(O[C@@H]4CCCOC4)c3C2=O)C(=O)N1` (stereo partly drawn) [Example 149, [2-(2,6-dioxopiperidin-3-yl)-4-[(3R)-oxan-3-yloxy]-3-oxo-2,3-dihydro-1H-isoindol-5-yl]methyl N-[4-(3,5-difluorophenoxy)-2-fluorophenyl]carbamate]?
Answer: IC50 (Phospho-Rb (Ser807/811)): 71 nM; Emax (Phospho-Rb (Ser807/811)): 144%; DC50 (GSPT1): > 14000 nM; Dmax (GSPT1): 15%; DC50 (Cyclin E1): 67 nM; Dmax (Cyclin E1): 109%; Ratio of GSPT1 DC50/Cyclin E1 DC50 (Cyclin E1): >209

Question: `O=C1CCC(N2Cc3ccc(COC(=O)Nc4ccc(Oc5cc(F)c(F)c(F)c5)cc4F)c(O[C@@H]4CCCOC4)c3C2=O)C(=O)N1` (stereo partly drawn) [Example 150, [2-(2,6-dioxopiperidin-3-yl)-4-[(3R)-oxan-3-yloxy]-3-oxo-2,3-dihydro-1H-isoindol-5-yl]methyl N-[2-fluoro-4-(3,4,5-trifluorophenoxy)phenyl]carbamate] was tested. Which IC50 (Phospho-Rb (Ser807/811)) did it give?
Answer: 96 nM

Question: What about the Emax (Phospho-Rb (Ser807/811)) of the same compound?
Answer: 137%

Question: And the DC50 (GSPT1)?
Answer: > 14000 nM

Question: And the Dmax (GSPT1)?
Answer: 0%

Question: And the DC50 (Cyclin E1)?
Answer: 182 nM

Question: What about the Dmax (Cyclin E1) of the same compound?
Answer: 100%

Question: And the “Ratio of GSPT1 DC50/Cyclin E1 DC50” value (Cyclin E1)?
Answer: >77

Question: `O=C1CCC(N2Cc3ccc(COC(=O)Nc4ccc(Oc5ccc(F)c(F)c5)cc4)c(OC4CCCC4)c3C2=O)C(=O)N1` (stereo not drawn) [Example 151, [4-(cyclopentyloxy)-2-(2,6-dioxopiperidin-3-yl)-3-oxo-2,3-dihydro-1H-isoindol-5-yl]methyl N-[4-(3,4-difluorophenoxy)phenyl]carbamate] was tested. Which IC50 (Phospho-Rb (Ser807/811)) did it give?
Answer: 31 nM

Question: And the Emax (Phospho-Rb (Ser807/811))?
Answer: 113%

Question: What about the DC50 (GSPT1) of the same compound?
Answer: > 14000 nM

Question: And the Dmax (GSPT1)?
Answer: 10%

Question: And the DC50 (Cyclin E1)?
Answer: 71 nM

Question: What about the Dmax (Cyclin E1) of the same compound?
Answer: 108%

Question: What about the “Ratio of GSPT1 DC50/Cyclin E1 DC50” value (Cyclin E1) of the same compound?
Answer: >196

Question: For `O=C1CCC(N2Cc3ccc(COC(=O)Nc4ccc(Oc5ccc(F)c(F)c5)cc4)c(O[C@H]4CCOC4)c3C2=O)C(=O)N1` (stereo partly drawn) [Example 152, [2-(2,6-dioxopiperidin-3-yl)-3-oxo-4-[(3S)-oxolan-3-yloxy]-2,3-dihydro-1H-isoindol-5-yl]methyl N-[4-(3,4-difluorophenoxy)phenyl]carbamate], which IC50 (Phospho-Rb (Ser807/811)) is on record?
Answer: 152 nM

Question: What about the Emax (Phospho-Rb (Ser807/811)) of the same compound?
Answer: 120%

Question: And the DC50 (GSPT1)?
Answer: > 14000 nM

Question: And the Dmax (GSPT1)?
Answer: 32%

Question: What about the DC50 (Cyclin E1) of the same compound?
Answer: 152 nM

Question: What about the Dmax (Cyclin E1) of the same compound?
Answer: 108%

Question: And the “Ratio of GSPT1 DC50/Cyclin E1 DC50” value (Cyclin E1)?
Answer: >92
